From patent US20170166598A1, “HETEROARYL COMPOUNDS FOR KINASE INHIBITION” (ARIAD PHARMACEUTICALS, INC., priority 2014, published 2017) come the findings set out here.

What all share (format): cell-based
For experiment [1], the target named is T1, human EGFR exon 20 insertion NPG (H773_V774insNPG) (Homo sapiens, UniProt P00533, INS772GNP).
T1 construct: expressed in transfected cells; host or cells: Ba/F3 (murine pro-B) cells transduced with lentivirus from pLVX-IRES puro
Briefly: Ba/F3-EGFR-Exon20-NPG cell anti-proliferative assay (CellTiter 96 MTS, 72 h). The note with it: Ba/F3-EGFR-Exon20-NPG cells. The procedure, abridged:
(§1)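 Ba/F3 cells made IL-3-independent by lentiviral EGFR exon 20 NPG or ASV insertion were exposed 72 h at 37 °C to 4-fold dilutions of compound (top 10,000 nM). Viability read by MTS tetrazolium conversion, absorbance 490 nm after 2 h.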

Experiment [2] concerns the target T2, human EGFR L858R and T790M double mutation (Homo sapiens, UniProt P00533, L858R/T790M).
T2 construct: expressed in transfected cells; host or cells: Ba/F3 (murine pro-B) cells transduced with lentivirus from pLVX-IRES puro
Briefly: Ba/F3-EGFR L858R/T790M cell anti-proliferative assay (CellTiter 96 MTS, 72 h). The note with it: Ba/F3-EGFR L858R/T790M cells. The method, then: An expression vector, pLVX-IRES puro (Clontech) coding for human EGFR L858R and T790M double mutation, was transfected into HEK293 cells by the Trans-Lentiviral ORF Packaging System (Thermo Scientific), to produce virus encoding EGFR L858R and T790M double mutations. Ba/F3 (DSMZ) cells maintained in RPMI 1640 medium supplemented with 10% fetal bovine serum, 200 μM L-glutamine/l 200 μg/mL penicillin/200 μg/mL streptomycin (Life Technology) and 10 ng/mL IL-3 (R&D system), were infected by EGFR L858R and T790M double mutation virus and subsequently selected by puromycin (Life Technology) selection and IL-3 depletion. […] The anti-proliferative activity of compounds was determined as follows: BaF3-EGFR L858R/T790M cells seeded in 96 well plates (2500 cells/well) were treated with test compound (dissolved in DMSO) at a series of concentrations (4-fold dilution, top concentration: 10,000 nM). The plates were incubated for 72 h in a 37° C. incubator with 5% CO2, and the number of viable cells in each well were measured indirectly by CellTiter 96® Aqueous One Solution Cell Proliferation Assay (Promega; this assay is a colorimetric method for determining the number of viable cells through measurement of their metabolic activity by detection of enzymatic conversion of tetrazolium salts into blue formazan derivatives). Reagent (20 μL) was added into each well, and the plates were returned to the incubator for 2 h. The absorbance in each well was then measured at 490 nm using an Envision plate reader (Perkin Elmer).

Experiment [3] addresses T3, Her2 exon 20 YVMA insertion (A775_G776ins YVMA) (Homo sapiens, UniProt P04626, INS775YVMA).
T3 construct: expressed in transfected cells; host or cells: Ba/F3 (murine pro-B) cells transduced with lentivirus from pLVX-IRES puro
Briefly: Ba/F3-Her2 Exon20 YVMA cell anti-proliferative assay (CellTiter 96 MTS, 72 h). The note with it: Ba/F3-Her2 Exon20 YVMA cells. Summed up: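 IL-3-independent Ba/F3 cells transduced with the YVMA insertion were treated with compound in 4-fold dilutions from 10,000 nM top. After 72 h at 37° C, viable cells were quantified by MTS tetrazolium conversion, with absorbance read at 490 nm after 2 h.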

For experiment [4], the target named is T4, human EGFR exon 20 insertion ASV (V769_D770insASV) (Homo sapiens, UniProt P00533, INS769ASV).
T4 construct: expressed in transfected cells; host or cells: Ba/F3 (murine pro-B) cells transduced with lentivirus from pLVX-IRES puro
Briefly: Ba/F3-EGFR-Exon20-ASV cell anti-proliferative assay (CellTiter 96 MTS, 72 h). The note with it: Ba/F3-EGFR-Exon20-ASV cells. The procedure, abridged:
as §1

The target in experiment [5] is T5, human EGFR E746-A750 deletion and T790M Mutation (Homo sapiens, UniProt P00533, DEL746-750/T790M).
T5 construct: expressed in transfected cells; host or cells: Ba/F3 (murine pro-B) cells transduced with lentivirus from pLVX-IRES puro
T5 sequence (P00533 with tags, fused parts or gaps DEL746-750/T790M): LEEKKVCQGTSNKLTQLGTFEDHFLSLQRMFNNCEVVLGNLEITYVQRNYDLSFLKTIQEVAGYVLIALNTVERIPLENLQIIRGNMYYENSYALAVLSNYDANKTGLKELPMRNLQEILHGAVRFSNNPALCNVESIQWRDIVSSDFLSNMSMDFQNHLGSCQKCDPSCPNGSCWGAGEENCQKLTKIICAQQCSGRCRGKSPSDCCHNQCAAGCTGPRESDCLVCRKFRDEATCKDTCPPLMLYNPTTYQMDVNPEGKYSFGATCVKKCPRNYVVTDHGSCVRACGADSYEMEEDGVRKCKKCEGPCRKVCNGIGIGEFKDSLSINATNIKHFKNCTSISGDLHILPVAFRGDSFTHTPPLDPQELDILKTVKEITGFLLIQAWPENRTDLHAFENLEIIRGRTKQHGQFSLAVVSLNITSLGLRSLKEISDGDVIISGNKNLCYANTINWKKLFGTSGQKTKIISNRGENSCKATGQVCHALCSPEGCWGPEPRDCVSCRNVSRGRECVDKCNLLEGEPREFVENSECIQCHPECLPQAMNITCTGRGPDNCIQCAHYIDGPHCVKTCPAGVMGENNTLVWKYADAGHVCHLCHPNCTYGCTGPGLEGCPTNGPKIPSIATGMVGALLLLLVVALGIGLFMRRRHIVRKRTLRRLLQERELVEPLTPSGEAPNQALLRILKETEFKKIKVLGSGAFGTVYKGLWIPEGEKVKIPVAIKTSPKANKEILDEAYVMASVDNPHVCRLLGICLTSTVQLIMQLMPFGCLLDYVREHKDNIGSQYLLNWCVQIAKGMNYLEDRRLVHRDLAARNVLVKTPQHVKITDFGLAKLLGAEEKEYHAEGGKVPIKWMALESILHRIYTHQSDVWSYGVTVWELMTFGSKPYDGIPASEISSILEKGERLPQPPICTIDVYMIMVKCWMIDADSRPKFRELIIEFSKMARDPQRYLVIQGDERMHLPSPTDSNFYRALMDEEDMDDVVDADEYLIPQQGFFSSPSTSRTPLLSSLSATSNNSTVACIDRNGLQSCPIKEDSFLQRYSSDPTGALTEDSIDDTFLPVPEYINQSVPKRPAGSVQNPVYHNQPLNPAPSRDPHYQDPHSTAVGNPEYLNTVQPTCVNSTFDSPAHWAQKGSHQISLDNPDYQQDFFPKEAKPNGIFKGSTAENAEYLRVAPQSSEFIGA
The experiment can be described thus: Ba/F3-EGFR-Del/T790M cell anti-proliferative assay (CellTiter 96 MTS, 72 h). The note with it: Ba/F3-EGFR-Del/T790M cells. The procedure, abridged: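 Ba/F3 cells made IL-3-independent by lentiviral human EGFR E746-A750 del/T790M, puromycin-selected. Cells treated 72 h at 37 °C with compound, 4-fold dilutions from 10,000 nM top concentration. Viability read by MTS tetrazolium-to-formazan conversion, absorbance at 490 nm after 2 h with reagent.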

T3 sequence (P04626 with tags, fused parts or gaps INS775YVMA): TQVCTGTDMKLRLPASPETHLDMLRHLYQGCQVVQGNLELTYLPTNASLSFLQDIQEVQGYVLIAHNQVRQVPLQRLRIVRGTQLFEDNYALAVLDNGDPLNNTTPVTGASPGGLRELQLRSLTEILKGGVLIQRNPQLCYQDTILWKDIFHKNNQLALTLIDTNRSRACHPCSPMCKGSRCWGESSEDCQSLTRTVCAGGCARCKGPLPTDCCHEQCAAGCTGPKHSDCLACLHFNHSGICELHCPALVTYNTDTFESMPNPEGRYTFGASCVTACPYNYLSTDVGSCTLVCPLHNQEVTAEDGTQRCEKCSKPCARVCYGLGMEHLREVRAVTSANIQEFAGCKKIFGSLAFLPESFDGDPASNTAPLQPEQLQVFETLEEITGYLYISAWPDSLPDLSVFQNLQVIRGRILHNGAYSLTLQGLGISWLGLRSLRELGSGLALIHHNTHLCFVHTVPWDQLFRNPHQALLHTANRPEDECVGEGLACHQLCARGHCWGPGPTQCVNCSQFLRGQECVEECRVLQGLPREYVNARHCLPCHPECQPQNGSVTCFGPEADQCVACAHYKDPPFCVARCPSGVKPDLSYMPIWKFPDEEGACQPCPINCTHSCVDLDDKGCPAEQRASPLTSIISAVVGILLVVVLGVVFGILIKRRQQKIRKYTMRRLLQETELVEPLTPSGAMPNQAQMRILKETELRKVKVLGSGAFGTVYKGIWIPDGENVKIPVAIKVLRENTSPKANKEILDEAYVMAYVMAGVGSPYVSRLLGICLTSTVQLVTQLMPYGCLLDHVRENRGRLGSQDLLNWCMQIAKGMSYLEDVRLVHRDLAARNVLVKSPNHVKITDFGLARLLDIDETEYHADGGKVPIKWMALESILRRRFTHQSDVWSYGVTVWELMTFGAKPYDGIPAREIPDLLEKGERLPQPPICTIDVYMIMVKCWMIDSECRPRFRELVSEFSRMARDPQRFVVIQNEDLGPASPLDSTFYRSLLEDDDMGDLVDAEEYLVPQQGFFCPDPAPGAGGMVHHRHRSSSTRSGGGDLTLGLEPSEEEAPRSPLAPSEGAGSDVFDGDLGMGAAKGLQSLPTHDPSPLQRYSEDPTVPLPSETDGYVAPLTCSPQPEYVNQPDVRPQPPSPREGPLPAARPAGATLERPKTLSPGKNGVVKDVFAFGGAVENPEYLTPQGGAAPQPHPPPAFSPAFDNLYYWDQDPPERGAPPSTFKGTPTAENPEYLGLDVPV
T1 sequence (P00533 with tags, fused parts or gaps INS772GNP): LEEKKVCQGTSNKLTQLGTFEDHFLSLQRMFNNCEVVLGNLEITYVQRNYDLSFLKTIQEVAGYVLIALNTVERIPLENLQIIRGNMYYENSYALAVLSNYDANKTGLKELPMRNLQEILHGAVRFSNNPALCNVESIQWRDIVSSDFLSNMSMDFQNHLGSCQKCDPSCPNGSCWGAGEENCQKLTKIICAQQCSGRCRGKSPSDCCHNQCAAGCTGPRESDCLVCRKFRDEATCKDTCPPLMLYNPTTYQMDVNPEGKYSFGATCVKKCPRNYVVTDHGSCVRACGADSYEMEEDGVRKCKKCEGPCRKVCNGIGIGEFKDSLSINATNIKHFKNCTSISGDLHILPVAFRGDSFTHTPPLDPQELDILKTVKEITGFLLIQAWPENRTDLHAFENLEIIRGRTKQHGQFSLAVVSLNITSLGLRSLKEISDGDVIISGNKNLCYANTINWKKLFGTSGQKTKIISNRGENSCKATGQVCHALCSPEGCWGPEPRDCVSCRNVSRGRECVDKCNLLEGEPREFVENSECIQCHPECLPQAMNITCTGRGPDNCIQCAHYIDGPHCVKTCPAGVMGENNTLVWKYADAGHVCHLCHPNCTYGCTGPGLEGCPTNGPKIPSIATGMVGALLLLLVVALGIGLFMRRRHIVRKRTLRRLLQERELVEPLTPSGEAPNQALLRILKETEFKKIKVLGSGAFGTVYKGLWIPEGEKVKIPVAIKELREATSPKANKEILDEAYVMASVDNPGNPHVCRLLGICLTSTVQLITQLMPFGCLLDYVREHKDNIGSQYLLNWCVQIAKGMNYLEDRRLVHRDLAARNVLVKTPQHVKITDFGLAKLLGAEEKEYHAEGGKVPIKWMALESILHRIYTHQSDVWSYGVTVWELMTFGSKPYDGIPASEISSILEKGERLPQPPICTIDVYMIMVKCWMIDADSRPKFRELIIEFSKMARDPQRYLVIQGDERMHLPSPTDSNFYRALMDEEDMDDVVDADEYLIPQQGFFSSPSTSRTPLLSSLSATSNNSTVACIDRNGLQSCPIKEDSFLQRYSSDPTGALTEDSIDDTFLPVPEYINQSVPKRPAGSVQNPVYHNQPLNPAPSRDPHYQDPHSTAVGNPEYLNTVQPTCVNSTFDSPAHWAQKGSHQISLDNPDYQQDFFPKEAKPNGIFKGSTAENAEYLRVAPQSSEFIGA
T2 sequence (P00533 25-1210 T790M/L858R): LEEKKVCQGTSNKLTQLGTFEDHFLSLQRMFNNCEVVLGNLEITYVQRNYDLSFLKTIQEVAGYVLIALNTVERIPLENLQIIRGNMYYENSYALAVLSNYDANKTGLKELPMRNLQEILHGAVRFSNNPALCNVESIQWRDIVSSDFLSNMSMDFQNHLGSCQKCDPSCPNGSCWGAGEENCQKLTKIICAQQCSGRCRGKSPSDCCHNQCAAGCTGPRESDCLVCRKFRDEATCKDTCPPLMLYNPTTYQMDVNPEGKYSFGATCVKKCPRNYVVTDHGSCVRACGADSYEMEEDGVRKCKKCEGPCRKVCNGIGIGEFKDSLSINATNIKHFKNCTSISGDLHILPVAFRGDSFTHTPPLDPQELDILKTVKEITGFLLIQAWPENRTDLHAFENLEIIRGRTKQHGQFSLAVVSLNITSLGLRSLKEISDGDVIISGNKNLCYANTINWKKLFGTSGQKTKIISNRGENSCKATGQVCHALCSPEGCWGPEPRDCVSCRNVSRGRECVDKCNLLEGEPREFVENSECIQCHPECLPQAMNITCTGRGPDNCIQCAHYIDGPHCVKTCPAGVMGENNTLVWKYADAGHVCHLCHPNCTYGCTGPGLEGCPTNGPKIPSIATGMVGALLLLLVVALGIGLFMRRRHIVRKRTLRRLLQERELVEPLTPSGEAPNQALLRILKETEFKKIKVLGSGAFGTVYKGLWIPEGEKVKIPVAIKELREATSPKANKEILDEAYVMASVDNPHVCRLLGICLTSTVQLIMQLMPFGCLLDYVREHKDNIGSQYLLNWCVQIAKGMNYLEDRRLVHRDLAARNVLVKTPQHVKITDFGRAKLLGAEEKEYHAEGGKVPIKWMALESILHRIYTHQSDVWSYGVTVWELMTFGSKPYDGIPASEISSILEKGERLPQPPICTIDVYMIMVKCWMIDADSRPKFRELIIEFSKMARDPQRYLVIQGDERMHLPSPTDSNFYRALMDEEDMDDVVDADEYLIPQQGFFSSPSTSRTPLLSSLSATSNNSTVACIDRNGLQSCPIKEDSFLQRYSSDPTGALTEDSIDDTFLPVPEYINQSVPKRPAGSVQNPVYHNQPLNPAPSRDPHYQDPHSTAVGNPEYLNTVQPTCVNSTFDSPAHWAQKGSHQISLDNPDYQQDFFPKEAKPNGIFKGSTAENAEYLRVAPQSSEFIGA

On to `C=CC(=O)Nc1cc(Nc2ncc(CC)c(-c3cn4c5c(cccc35)OCC4)n2)c(OC)cc1N(C)CCN(C)C` [Example 1, N-(5-((4-(2,3-dihydro-[1,4]oxazino[2,3,4-hi]indol-6-yl)-5-ethylpyrimidin-2-yl)amino)-2-((2-(dimethylamino)ethyl)(methyl)amino)-4-methoxyphenyl)acrylamide], for which the values for the IC50 in experiment [1], in experiment [3] and in experiment [4] were < 100 nM, 100 to 500 nM and < 100 nM, respectively. Also, the “EGFR exon 21 L858R and exon 20 T790M mutation IC50” value in experiment [2] is given as “A (IC50 value for the indicated mutant below about 100 nM)”. In addition, in experiment [5], the “EGFR exon 19 deletion and exon 20 T790M mutation IC50” value is “A (IC50 value for the indicated mutant below about 100 nM)”.
Turning to `C=CC(=O)Nc1cc(Nc2ncc(C#N)c(-c3cn4c5c(cccc35)OCC4)n2)c(OC)cc1N(C)CCN(C)C` [Example 4, N-(5-((5-cyano-4-(2,3-dihydro-[1,4]oxazino[2,3,4-hi]indol-6-yl)pyrimidin-2-yl)amino)-2-((2-(dimethylamino)ethyl)(methyl)amino)-4-methoxyphenyl)acrylamide], the IC50 in experiment [1], in experiment [3] and in experiment [4] was < 100 nM throughout. Moreover, in experiment [2], the “EGFR exon 21 L858R and exon 20 T790M mutation IC50” value was “A (IC50 value for the indicated mutant below about 100 nM)”. The “EGFR exon 19 deletion and exon 20 T790M mutation IC50” value in experiment [5] was “A (IC50 value for the indicated mutant below about 100 nM)”.
For the compound `C=CC(=O)Nc1cc(Nc2nccc(-c3cn4c5c(cccc35)CCC4)n2)c(OC)cc1N(C)CCN(C)C` [Example 10, N-(5-((4-(5,6-dihydro-4H-pyrrolo[3,2,1-ij]quinolin-1-yl)pyrimidin-2-yl)amino)-2-((2-(dimethylamino)ethyl)(methyl)amino)-4-methoxyphenyl)acrylamide], the IC50 was < 100 nM in experiment [1], 100 to 500 nM in experiment [3] and 100 to 500 nM in experiment [4]. In addition, the “EGFR exon 21 L858R and exon 20 T790M mutation IC50” value in experiment [2] is “A (IC50 value for the indicated mutant below about 100 nM)”. Besides, in experiment [5], the “EGFR exon 19 deletion and exon 20 T790M mutation IC50” value is “A (IC50 value for the indicated mutant below about 100 nM)”.
For the compound `C=CC(=O)Nc1cc(Nc2ncc(Cl)c(-c3cn4c5c(cccc35)CCC4)n2)c(OC)cc1N(C)CCN(C)C` [Example 11, N-(5-((5-chloro-4-(5,6-dihydro-4H-pyrrolo[3,2,1-ij]quinolin-1-yl)pyrimidin-2-yl)amino)-2-((2-(dimethylamino)ethyl)(methyl)amino)-4-methoxyphenyl)acrylamide], the IC50 was < 100 nM in experiment [1], 100 to 500 nM in experiment [3] and < 100 nM in experiment [4]. Besides, the “EGFR exon 21 L858R and exon 20 T790M mutation IC50” value in experiment [2] is “A (IC50 value for the indicated mutant below about 100 nM)”. Besides, the “EGFR exon 19 deletion and exon 20 T790M mutation IC50” value in experiment [5] was “A (IC50 value for the indicated mutant below about 100 nM)”.
Consider `C=CC(=O)Nc1cc(Nc2ncc(Cl)c(-c3cn4c5c(cccc35)CCC4)n2)c(Cl)cc1N(C)CCN(C)C` [Example 12, N-(4-chloro-5-((5-chloro-4-(5,6-dihydro-4H-pyrrolo[3,2,1-ij]quinolin-1-yl)pyrimidin-2-yl)amino)-2-((2-(dimethylamino)ethyl)(methyl)amino)phenyl)acrylamide], for which the IC50 in experiment [1] is < 100 nM; in experiment [3], 100 to 500 nM. For the same compound, in experiment [2], the “EGFR exon 21 L858R and exon 20 T790M mutation IC50” value is on record as “A (IC50 value for the indicated mutant below about 100 nM)”. Besides, the “EGFR exon 19 deletion and exon 20 T790M mutation IC50” value in experiment [5] was “A (IC50 value for the indicated mutant below about 100 nM)”.
As for `C=CC(=O)Nc1cc(Nc2ncc(C#N)c(-c3cn4c5c(cccc35)CCC4)n2)c(OC)cc1N(C)CCN(C)C` [Example 14, N-(5-((5-cyano-4-(5,6-dihydro-4H-pyrrolo[3,2,1-ij]quinolin-1-yl)pyrimidin-2-yl)amino)-2-((2-(dimethylamino)ethyl)(methyl)amino)-4-methoxyphenyl)acrylamide], the IC50 in experiment [1] was > 1000 nM; in experiment [3], < 100 nM; in experiment [4] it was < 100 nM. In addition, the “EGFR exon 21 L858R and exon 20 T790M mutation IC50” value in experiment [2] was “A (IC50 value for the indicated mutant below about 100 nM)”. The “EGFR exon 19 deletion and exon 20 T790M mutation IC50” value in experiment [5] is given as “A (IC50 value for the indicated mutant below about 100 nM)”.
For the compound `C=CC(=O)Nc1cc(Nc2ncc(Cl)c(-c3cn4c5c(cccc35)CCC4)n2)c(OC)cc1O[C@H](COCC)CN(C)C` [Example 23, (S)-N-(5-((5-chloro-4-(5,6-dihydro-4H-pyrrolo[3,2,1-ij]quinolin-1-yl)pyrimidin-2-yl)amino)-2-((1-(dimethylamino)-3-ethoxypropan-2-yl)oxy)-4-methoxyphenyl)acrylamide], the IC50 in experiment [1] and in experiment [3] was 100 to 500 nM in each case. Besides, the “EGFR exon 21 L858R and exon 20 T790M mutation IC50” value in experiment [2] is “A (IC50 value for the indicated mutant below about 100 nM)”. Besides, the “EGFR exon 19 deletion and exon 20 T790M mutation IC50” value in experiment [5] is on record as “A (IC50 value for the indicated mutant below about 100 nM)”.
As for `C=CC(=O)Nc1cc(Nc2ncc(C#N)c(-c3cn4c5c(cccc35)CCC4)n2)c(OC)cc1N(C)CCN(C)C(C)C` [Example 26, N-(5-((5-cyano-4-(5,6-dihydro-4H-pyrrolo[3,2,1-ij]quinolin-1-yl)pyrimidin-2-yl)amino)-2-((2-(isopropyl(methyl)amino)ethyl)(methyl)amino)-4-methoxyphenyl)acrylamide], the IC50 in experiment [1], in experiment [3] and in experiment [4] was < 100 nM each time. Also, in experiment [2], the “EGFR exon 21 L858R and exon 20 T790M mutation IC50” value is recorded as “A (IC50 value for the indicated mutant below about 100 nM)”. Besides, the “EGFR exon 19 deletion and exon 20 T790M mutation IC50” value in experiment [5] is listed as “A (IC50 value for the indicated mutant below about 100 nM)”.
`C=CC(=O)Nc1cc(Nc2ncc(Cl)c(-c3cn4c5c(cccc35)OCC4)n2)c(OC)cc1O[C@@H](COCC)CN(C)C` [Example 80, (R)-N-(5-((5-chloro-4-(2,3-dihydro-[1,4]oxazino[2,3,4-hi]indol-6-yl)pyrimidin-2-yl)amino)-2-((1-(dimethylamino)-3-ethoxypropan-2-yl)oxy)-4-methoxyphenyl)acrylamide]: the IC50 in experiment [1] is < 100 nM; in experiment [3], 100 to 500 nM. Besides, the “EGFR exon 21 L858R and exon 20 T790M mutation IC50” value in experiment [2] is recorded as “A (IC50 value for the indicated mutant below about 100 nM)”. Also, the “EGFR exon 19 deletion and exon 20 T790M mutation IC50” value in experiment [5] was “A (IC50 value for the indicated mutant below about 100 nM)”.
For `C=CC(=O)Nc1cc(Nc2ncc(Cl)c(-c3cn4c5c(cccc35)OCC4)n2)c(OC)cc1O[C@H](COCC)CN(C)C` [Example 81, (S)-N-(5-((5-chloro-4-(2,3-dihydro-[1,4]oxazino[2,3,4-hi]indol-6-yl)pyrimidin-2-yl)amino)-2-((1-(dimethylamino)-3-ethoxypropan-2-yl)oxy)-4-methoxyphenyl)acrylamide], the IC50 in experiment [1] was < 100 nM; in experiment [3], 100 to 500 nM. Also, the “EGFR exon 21 L858R and exon 20 T790M mutation IC50” value in experiment [2] is “A (IC50 value for the indicated mutant below about 100 nM)”. Besides, the “EGFR exon 19 deletion and exon 20 T790M mutation IC50” value in experiment [5] is given as “A (IC50 value for the indicated mutant below about 100 nM)”.
Turning to `C=CC(=O)Nc1cc(Nc2nccc(-c3c(-c4ncnn4C)n4c5c(cccc35)CCC4)n2)c(OC)cc1N(C)CCN(C)C` [Example 110], the values for the IC50 in experiment [1], in experiment [3] and in experiment [4] were < 100 nM, > 1000 nM and 100 to 500 nM, respectively. Besides, the “EGFR exon 19 deletion and exon 20 T790M mutation IC50” value in experiment [5] is listed as “A (IC50 value for the indicated mutant below about 100 nM)”.
The corresponding values for `C=CC(=O)Nc1cc(Nc2ncc(-c3ncnn3C)c(-c3cn4c5c(cccc35)CCC4)n2)c(OC)cc1N(C)CCN(C)C` [Example 111] are < 100 nM, 100 to 500 nM, < 100 nM and “A (IC50 value for the indicated mutant below about 100 nM)”.

For orientation: IC50 means the midpoint of a concentration-inhibition curve. Low readings indicate higher potency, high ones lower potency.
